Results published in ChEMBL document CHEMBL1129675, “New directions in antibacterial research” (1996).
≈ marks a conversion by molar mass, not a printed value. Calls of active or inactive are those of the source. The rule behind the calls is not given here.

Key:
Enterococcus faecium = experiment: Inhibitory activity against VanA strain of E. faecium; Range is 0.03-2 ug/mL; assay type: functional
Streptococcus pneumoniae = experiment: Inhibitory activity against Streptococcus pneumoniae; assay type: functional
Streptococcus pyogenes = experiment: Inhibitory activity against Streptococcus pyogenes; assay type: functional
Staphylococcus aureus [1] = experiment: Inhibitory activity against MRSA; assay type: functional
[2] = Inhibitory activity against VanB enterococci; Range is 0.016-1 ug/mL; assay type: functional
Enterococcus faecalis = experiment: Inhibitory activity against VanA strain of E. faecalis; Range is 0.03-2 ug/mL; assay type: functional
[3] = Antibacterial activity against Legionella; More active; assay type: functional
Streptococcus sp. [4] = experiment: Antibacterial activity against Streptococci; Retention of potent activity; assay type: functional, organism-based
Pasteurella multocida = experiment: Antibacterial activity against Pasteurella multocida; More active; assay type: functional, organism-based
Helicobacter pylori = experiment: Antibacterial activity against Helicobacter pylori; Exhibits good activity; assay type: functional, organism-based
[5] = Antibacterial activity against […] species.; More active; assay type: functional
Chlamydia = experiment: Antibacterial activity against Chlamydia; More active; assay type: functional, organism-based
Haemophilus influenzae = experiment: Antibacterial activity against Haemophilus influenzae; Active; assay type: functional, organism-based
Streptococcus sp. [6] = experiment: Antibacterial activity against Streptococci; More active; assay type: functional, organism-based
Pseudomonas aeruginosa = experiment: Antibacterial activity against Pseudomonas aeruginosa was determined; Active; assay type: functional, organism-based
[7] = Antibacterial activity against penicillin resistant pneumococci was determined; Active; assay type: functional
Staphylococcus aureus [8] = experiment: Antibacterial activity against MRSA was determined; Active; assay type: functional, organism-based

SMILES	MIC (Enterococcus faecium) [µg/mL]	MIC (Streptococcus pneumoniae) [µg/mL]	MIC (Streptococcus pyogenes) [µg/mL]	MIC (Staphylococcus aureus [1]) [µg/mL]	MIC [2] [µg/mL]	MIC (Enterococcus faecalis) [µg/mL]	Activity (Pseudomonas aeruginosa)	also measured
CN[C@H](CC(C)C)C(=O)N[C@H]1C(=O)N[C@@H](CC(N)=O)C(=O)N[C@H]2C(=O)N[C@H]3C(=O)N[C@](C)(C(=O)N[C@H](C(=O)O)c4cc(O)cc(O)c4-c4cc3ccc4O)[C@H](C[C@H]3C[C@](C)(N)[C@@H](O)[C@H](C)O3)c3ccc(c(Cl)c3)Oc3cc2cc(c3O[C@@H]2O[C@H](CO)[C@@H](O)[C@H](O)[C@H]2O[C@@H]2C[C@](C)(NCc3ccc(Oc4ccccc4)cc3)[C@@H](O)[C@H](C)O2)Oc2ccc(cc2Cl)[C@H]1O	0.03 (≈ 0.0168 µM)	< 0.008	< 0.06	≤ 0.5	0.016 (≈ 0.00895 µM)	0.03 (≈ 0.0168 µM)	–	–
CN[C@H](CC(C)C)C(=O)N[C@H]1C(=O)N[C@@H](CC(N)=O)C(=O)N[C@H]2C(=O)N[C@H]3C(=O)N[C@](C)(C(=O)N[C@H](C(=O)O)c4cc(O)cc(O)c4-c4cc3ccc4O)[C@H](C[C@H]3C[C@](C)(N)[C@@H](O)[C@H](C)O3)c3ccc(c(Cl)c3)Oc3cc2cc(c3O[C@@H]2O[C@H](CO)[C@@H](O)[C@H](O)[C@H]2O[C@@H]2C[C@](C)(NCc3ccc(-c4ccc(Cl)cc4)cc3)[C@@H](O)[C@H](C)O2)Oc2ccc(cc2Cl)[C@H]1O	0.03 (≈ 0.0166 µM)	< 0.008	< 0.06	≤ 0.5	0.016 (≈ 0.00886 µM)	0.03 (≈ 0.0166 µM)	–	–
CCCCC1CCC(CN[C@@]2(C)C[C@@H](O[C@H]3[C@H](Oc4c5cc6cc4Oc4ccc(cc4Cl)[C@@H](C[C@H]4C[C@](C)(N)[C@@H](O)[C@H](C)O4)[C@]4(C)NC(=O)[C@H](NC(=O)[C@@H]6NC(=O)[C@H](CC(N)=O)NC(=O)[C@H](NC(=O)[C@@H](CC(C)C)NC)[C@H](O)c6ccc(c(Cl)c6)O5)c5ccc(O)c(c5)-c5c(O)cc(O)cc5[C@@H](C(=O)O)NC4=O)O[C@H](CO)[C@@H](O)[C@@H]3O)O[C@@H](C)[C@@H]2O)CC1 (some centres not stated)	0.03 (≈ 0.0171 µM)	< 0.008	< 0.06	≤ 0.5	0.016 (≈ 0.00911 µM)	0.03 (≈ 0.0171 µM)	–	–
CN(C)[C@@H]1C(=O)C(C(N)=O)=C(O)[C@@]2(O)C(=O)C3=C(O)c4c(O)cccc4[C@H](CSCCCCl)C3[C@H](O)C12 (some centres not stated)	–	–	–	–	–	–	–	MIC90 (Staphylococcus aureus [1]): 2 µg/mL (≈ 3.62 µM)
CC[C@H]1OC(=O)[C@H](C)[C@@H](OC2CC(C)(O)C(O)C(C)O2)[C@H](C)[C@@H](OC2OC(C)CC(N(C)C)C2O)[C@](C)(OC)C[C@@H](C)C(=O)[C@H](C)[C@@H](O)[C@]1(C)O (some centres not stated)	–	–	–	–	–	–	–	Activity [3]: Active; Activity (Streptococcus sp. [4]): Exihibits good activity; Activity (Pasteurella multocida): Active; Activity (Helicobacter pylori): Exihibits good activity; Activity [5]: Active; Activity (Chlamydia): Active; Activity (Haemophilus influenzae): Active
CC[C@H]1OC(=O)[C@H](C)[C@@H](O[C@H]2C[C@@](C)(OC)[C@@H](O)[C@H](C)O2)[C@H](C)[C@@H](O[C@@H]2O[C@H](C)C[C@H](N(C)C)[C@H]2O)[C@](C)(O)C[C@@H](C)CN(C)[C@H](C)[C@@H](O)[C@]1(C)O	–	–	–	–	–	–	–	Activity [3]: Active; Activity (Streptococcus sp. [6]): Active; Activity (Pasteurella multocida): Active; Activity [5]: Active; Activity (Chlamydia): Active; Activity (Haemophilus influenzae): Active
C[C@@H](O)[C@H]1C(=O)N2C(C(=O)O)=C(SCCNC=N)C[C@H]12	–	–	–	–	–	–	Active	–
C[C@@H](O)[C@H]1C(=O)N2C(C(=O)[O-])=C(c3ccc4c(c3)-c3ccc(C[n+]5ccn(C)c5)cc3C4=O)C[C@H]12	–	–	–	–	–	–	–	Activity [7]: Active; Activity (Staphylococcus aureus [8]): Active
C[C@@H]1[C@H](NC(=O)/C(=N\OCC(=O)NNC(=O)c2nc3cc(O)c(O)cc3nc2C(=O)O)c2csc(N)n2)C(=O)N1S(=O)(=O)O	–	–	–	–	–	–	Active	–
C[C@@H]1[C@H](NC(=O)/C(=N\OCc2cc3cc(O)c(O)cc3cc2C(=O)O)c2csc(N)n2)C(=O)N1S(=O)(=O)O	–	–	–	–	–	–	Active	–
